# Assay results: publication doi:10.1101/2025.03.30.646166v1 (biorxiv, 2025)
# Molecular target: T1, human USP18 residues 52-372 (recombinant) (Homo sapiens, UniProt Q9UMW8)
# T1 sequence (Q9UMW8 52-372): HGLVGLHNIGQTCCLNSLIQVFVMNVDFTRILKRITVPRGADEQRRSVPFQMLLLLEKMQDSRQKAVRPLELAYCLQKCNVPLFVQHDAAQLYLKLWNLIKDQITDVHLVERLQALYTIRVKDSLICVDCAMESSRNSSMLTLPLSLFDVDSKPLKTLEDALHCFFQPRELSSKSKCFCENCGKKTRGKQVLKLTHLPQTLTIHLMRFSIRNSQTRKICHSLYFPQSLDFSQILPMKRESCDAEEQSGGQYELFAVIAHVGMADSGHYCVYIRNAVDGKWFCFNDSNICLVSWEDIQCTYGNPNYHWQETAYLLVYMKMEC
# Assay: fluorogenic ISG15ct-rhodamine cleavage, dose-response
# Format: biochemical
smiles,measurement,value
"Cc1ccc2[nH]c3c(c2c1)CN(C(=O)c1cc(-c2ccccc2)[nH]n1)CC3 [compound 8655, ZHAWOC8655]",IC50,14.1 ± 1.6 µM
